Data as given in patent US20100239563A1 (priority 2001, published 2010).

Assays:
[1] = system: influenza B viruses/Massachusetts/6/92 (B/Mass)
[2] = system: influenza A virus strain WSN-HK
[3] = system: influenza B virus strain Massachusetts/6/93
[4] = human, in vivo; cited from earlier work

## N#CC(=C(N)Sc1ccccc1N)C(C#N)=C(N)Sc1ccccc1N [U0126, 1,4-diamino-2,3-dicyano-1,4-bis(2-aminophenylthio)butadiene]
[1]
  titer of infectious virus particles over infection sequences: significant reduction of the influenza virus particles
MDCK cells
  cytotoxic effect on the cells: neither solvent nor inhibitor have a significant cytotoxic effect
[2]
  reduction of the number of newly formed infectious virus particles: approx. 80%
[3]
  reduction of the number of newly formed infectious virus particles: approx. 90%

## CN1CC[C@H](c2c(O)cc(O)c3c(=O)cc(-c4ccccc4Cl)oc23)[C@H](O)C1 [flavopiridol]
[4]
  MTD: 50 mg/m^2/dx3
